Reference: the NIST ThermoML archive (doi:10.1021/je200825j)

Conditions: Liquid mixture 1, Drop weight

CCCCCCCCCC [decane] + O
Conditions	interfacial tension [mN/m]
297.85 K, 110 kPa	51.96
323.35 K, 180 kPa	47.78
323.35 K, 22250 kPa	48.88
323.35 K, 39800 kPa	49.11
343.45 K, 150 kPa	46.28
343.45 K, 22850 kPa	47.68
343.45 K, 49020 kPa	48.39
374.25 K, 200 kPa	42.87
374.25 K, 23000 kPa	44.13
374.25 K, 47150 kPa	45.21
403.05 K, 400 kPa	39.59
403.05 K, 24500 kPa	40.33
403.05 K, 48000 kPa	40.9
442.85 K, 1150 kPa	32.36
442.85 K, 46400 kPa	36.89
